The text below walks through data of patent US10576076B2 (priority 2015, dated 2020).

The test system of assay [1] is influenza vaccine strains. The assay is described as follows: Clinical study in elderly volunteers: response to influenza vaccination after 6 weeks of mTOR inhibitor dosing. The note with it: 4 weeks after vaccination, 2 week drug-free break. The class given is in vivo, human. Here is the method: In a clinical study elderly volunteers were treated for 6 weeks daily with one of four mTOR inhibitor dosing regimens: 0.5 mg/day RAD001, 0.1 mg/day RAD001, 10 mg/day BEZ235 or 0.1 mg/day RAD001+10 mg/day BEZ235.
After being dosed for 6 weeks, the elderly volunteers were given a 2 week drug-free break and then received influenza vaccination. […] All dosing regimens were relatively well tolerated. […] However the majority of these adverse events were of mild severity, transient and resolved despite continued dosing of mTOR inhibitors.

A further assay addresses mTOR (Homo sapiens, UniProt P42345). The conditions noted are these: low concentration; cited from earlier work.
The subject of the next assay is PI3K/mTOR. The note with it: relatively higher concentrations; cited from earlier work.

For the compound `CO[C@H]1C[C@@H]2CC[C@@H](C)[C@@](O)(O2)C(=O)C(=O)N2CCCC[C@H]2C(=O)O[C@H]([C@H](C)C[C@@H]2CC[C@@H](OCCO)[C@H](OC)C2)CC(=O)[C@H](C)/C=C(\C)[C@@H](O)[C@@H](OC)C(=O)[C@H](C)C[C@H](C)/C=C/C=C/C=C/1C` [RAD001, (1R,9S,12S,15R,16E,18R,19R,21R,23S,24E,26E,28E,30S,32S,35R)-1,18-dihydroxy-12-{(1R)-2-[(1S,3R,4R)-4-(2-hydroxyethoxy)-3-methoxycyclohexyl]-1-methylethyl}-19,30-dimethoxy-15,17,21,23,29,35-hexamethyl-11,36-dioxa-4-aza-tricyclo[30.3.1.04,9]hexatriaconta-16,24,26,28-tetraene-2,3,10,14,20-pentaone], the “vaccine strains with GMT ratio as compared to placebo >1.2” value in assay [1] (RAD001 0.1 mg/day monotherapy for 6 weeks) and in assay [1] (RAD001 0.5 mg/day monotherapy for 6 weeks) was “⅓” each time.
`Cn1c(=O)n(-c2ccc(C(C)(C)C#N)cc2)c2c3cc(-c4cnc5ccccc5c4)ccc3ncc21` [BEZ235, 2-methyl-2-[4-(3-methyl-2-oxo-8-quinolin-3-yl-2,3-dihydro-imidazo[4,5-c]quinolin-1-yl)-phenyl]-propionitrile]: in assay [1] (BEZ235 10 mg/day monotherapy for 6 weeks), the “vaccine strains with GMT ratio as compared to placebo >1.2” value was 0/3. For the same compound, at mTOR, the “concentration at which mTOR inhibition predominates” value was “less than 100 nmol/L”. Moreover, the “concentration at which dual PI3K/mTOR inhibition occurs” value in the assay with PI3K/mTOR was “approximately 500 nmol/L”.
